Among the data in patent US6803368B2, “Antipsychotic aminomethyl derivatives of 7,8-dihydro-3H-6,9-dioxa-1,3-diaza-cyclopenta[a]naphthalene” (Wyeth, priority 2001, dated 2004) are IC50 values, retold here.

A word on the IC50: it is the point on the concentration scale where inhibition reaches its midpoint.

The target in this experiment is T1, dopamine D2 receptor (Rattus norvegicus, UniProt P61169).
T1 construct: from tissue; host or cells: rat striatal brain tissue homogenate
T1 sequence (P61169 whole entry): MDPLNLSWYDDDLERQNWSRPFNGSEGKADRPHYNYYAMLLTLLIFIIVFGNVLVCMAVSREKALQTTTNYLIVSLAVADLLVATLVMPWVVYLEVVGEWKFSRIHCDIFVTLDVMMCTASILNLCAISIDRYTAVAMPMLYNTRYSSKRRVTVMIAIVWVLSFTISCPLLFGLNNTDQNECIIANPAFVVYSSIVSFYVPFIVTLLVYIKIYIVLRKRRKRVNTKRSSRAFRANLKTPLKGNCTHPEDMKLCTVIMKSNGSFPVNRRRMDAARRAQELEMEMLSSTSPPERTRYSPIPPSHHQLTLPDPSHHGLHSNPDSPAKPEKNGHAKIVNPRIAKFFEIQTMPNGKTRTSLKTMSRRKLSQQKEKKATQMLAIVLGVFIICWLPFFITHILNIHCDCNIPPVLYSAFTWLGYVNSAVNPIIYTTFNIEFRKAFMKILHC
Put plainly: Dopamine D2 receptor affinity, 3H-quinpirole binding in homogenized rat striatal brain tissue. The procedure: Affinity for the dopamine D2 receptor was established by a modification of the standard experimental test procedure of Seemen and Schaus, European Journal of Pharmacology 203: 105-109, 1991, wherein homogenized rat striatal brain tissue is incubated with ^3H-quinpirole and various concentrations of test compound, filtered and washed and counted in a Betaplate scintillation counter.
Turning to “(2-Trifluoromethyl-7,8-dihydro-3H-6,9-dioxa-1,3-diaza-cyclopenta[a]naphthalen-8-yl)-methylamine [Example 1]”, the IC50 turned out to be 260 nM. The value for `FC(F)(F)c1nc2c3c(ccc2[nH]1)OCC(CNCc1ccccc1)O3` (stereo not drawn) [Example 3, Benzyl-(2-trifluoromethyl-7,8-dihydro-3H-6,9-dioxa-1,3-diaza-cyclopenta[a]naphthalen-8-ylmethyl)-amine] was 2.2 nM; that for `FC(F)(F)c1nc2c3c(ccc2[nH]1)OC[C@H](CNCCCCc1ccccc1)O3` [Example 2, (4-Phenyl-butyl)-(2-trifluoromethyl-7,8-dihydro-3H-6,9-dioxa-1,3-diaza-cyclopenta[a]naphthalen-8-ylmethyl)-amine] was 0.4 nM.
